Patent US20250059160A1, “Chemical Activators of Nicotinamide Mononucleotide adenylyltransferase 2 (NMNAT2) and Uses Thereof” (Tsinghua University, priority 2018, published 2025)
“Also recorded” adds a separate entry of the source.

Columns and labels:
[1] = test system: CIPN mice model; experiment: paclitaxel-induced CIPN mouse model, Von Frey test; assay type: in vivo
Description: The procedure of CIPN mouse model and treatment regimen is shown in the upper panel.
Chemotherapy-induced peripheral neuropathy (CIPN) arises from the peripheral nerve damage by anticancer pharmacotherapy, leading to a progressive, enduring, and debilitating condition featuring pain, numbness, tingling and sensitivity to cold in the hands and feet. CIPN afflicts between 30% and 40% of patients undergoing chemotherapy, but currently no effective treatment for CIPN exists (del Pino BM, 2010). Chemotherapy drugs associated with CIPN include the antimitotic drugs such as paclitaxel and vinblastine, which are widely used for the treatment of a variety of cancer. To evaluate the neuroprotective efficacy of the compounds in vivo, we developed an aggressive CIPN mice model as presented in FIG. 5.
Mice were daily administrated with compound 20, at doses of 6, 2, 0.6 and 0 mg/kg (5 animals per group, i.p.) from one week prior to the initiation of paclitaxel (D-7) to 8th day after the initiation of paclitaxel (D8). After one-week pre-dosing with compound 20, mice were injected intraperitoneally with paclitaxel at a dose of 2 mg/kg on 4 alternate days (Day 0, 2, 4, 6). The Von Frey test was conducted the other day after the last administration of paclitaxel. […] Mice were daily administrated with compound NSC, at doses of 1, 3, and 10 mg/kg (5-6 animals per group, i.p.) from one week prior to the initiation of taxol (paclitaxel) (D-7) to 8th day after the initiation of paclitaxel (D8). After one-week pre-dosing with compound NSC, mice were injected intraperitoneally with paclitaxel at a dose of 2 mg/kg on 4 alternate days (Day 0, 2, 4, 6). The Von Frey test was conducted the other day after the last administration of taxol (paclitaxel).

[2] = molecular target: NMNAT2 (Homo sapiens, UniProt Q9BZQ4); experiment: doubly coupled NMNAT2 enzyme assay (NMNAT2 + ADH, NADH fluorescence); assay type: biochemical
Experimental: In a doubly coupled enzyme assay, the first enzyme NMNAT2 (it converted NMN to NAD) and the second enzyme ADH (it converted NAD to NADH) as well as compound NSC at a concentration of 3 μM were used, and the conversion of NMN to NADH was monitored by measuring fluorescence intensity of NADH at an excitation of 340 nm and an emission of 445 nm (Y axis) as a function of time (X axis).
A high-throughput screen was performed in search of compounds capable of activating NMNAT2, an important NAD biosynthetic enzyme. Roughly 50,000 synthetic organic chemicals were tested in a doubly coupled NMNAT assay that contains two enzymes, NMNAT2 and alcohol dehydrogenase (ADH). […] The conversion of NMN to NADH was monitored by measuring fluorescence intensity of NADH at an excitation of 340 nm and an emission of 445 nm (Y axis) as a function of time (X axis). Fluorescence at ex340 nm/em445 nm (F340/445) was measured continuously for 30 minutes at room temperature to establish the reaction velocity. […] The reaction rate is expressed as the concentration of NADH (equivalent to NAD) formed per minute. Since the concentration of NADH is reflected by F340/445, the reaction rate is thus the slope of the linear kinetic curve of F340/445 versus time at time t, written as F340 445/min, which is calculated in the equation: reaction rate=ΔF340/445/Δt. […]

[3] = molecular target: NMNAT1 (Homo sapiens, UniProt Q9HAN9); experiment: doubly coupled enzyme assay prepared for NMNAT1; assay type: biochemical; settings: 3 μM compound, FIG. 3, NMNAT isoform comparison
Experimental: (§1) A doubly coupled enzyme assay was prepared for NMNAT1, NMNAT2 and NMNAT3. NMNAT activation is normalized, where the reaction rate of NMNAT in the presence of 3 μM of compound NSC was compared to that of a DMSO-treated control.
(§2) These compounds might represent direct activators of the NMNAT2 enzyme.

[4] = molecular target: NMNAT3 (Homo sapiens, UniProt Q96T66); experiment: doubly coupled enzyme assay prepared for NMNAT3; assay type: biochemical; settings: 3 μM compound, FIG. 3, NMNAT isoform comparison
Experimental: as §1, §2

[5] = test system: alcohol dehydrogenase (ADH); experiment: ADH enzyme assay with NAD as substrate (counter-screen); assay type: biochemical; settings: 5 μM compound, 50 μM NAD
Experimental: In a secondary screen, the compounds with the relative reaction rate higher than 150% are cherry-picked and retested in triplicates in the doubly coupled NMNAT2 assay. […] Briefly, the ADH enzyme reaction was prepared to contain 50 mM Tris-Cl (pH 8.0), 12 mM MgCl2, 1.5% ethanol, 10 mM semicarbizide, 0.2% bovine serum albumin (BSA), and 0.04 units ADH. 40 µl of the mixture was dispensed into 384-well black polypropylene plates, and individual compounds were added to each well at a final concentration of 5 μM. The reaction was initiated by addition of 50 μM NAD followed by gentle mixing in the plate. The conversion of NAD to NADH was monitored by measuring fluorescence intensity of NADH at an excitation of 340 nm and an emission of 445 nm (Y axis) as a function of time (X axis). Fluorescence at ex340 nm/em445 nm was measured continuously for 30 minutes to establish the kinetic reaction curve of F340/445 versus time. The reaction rates were calculated as described in the NMNAT2 assay. The relative ADH enzyme reaction rate in the presence of each compound is normalized by DMSO-treated control.

[6] = test system: SARM1-expressing cells; experiment: protection from SARM1-mediated toxicity, cell viability by CellTiter-Glo; assay type: cell-based; settings: 0.1, 0.3, 1, 3, 10, and 30 μM, 24 hours, FIG. 4
Experimental: SARM1-expressing cells were treated with compound NSC at 0.1, 0.3, 1, 3, 10, and 30 μM. After 24 hours, the cell images in bright field were taken under the microscope before cell viability was determined by measuring ATP levels using CellTiter-Glo assay kit.
In the first assay, the compounds were added at 1, 3, 10, 30 and 100 μM in the reaction mixture. The reaction rate of NMNAT2 enzyme was calculated as the slope of the F340/445 versus time curve, and was normalized by DMSO-treated control. The dose response curves were plotted to assess the effects of individual compounds on NMNAT2 enzymatic activity. […] After 24 hours, the cell survival was measured by Cell-titer Glo kit, and normalized by DMSO-treated control. […]
Compounds NSC and 1-40 were evaluated in two independent assays: an in vitro enzyme assay measuring activation of NMNAT2 and a cell-based assay measuring the degree of protection from SARM1 expression in cells. […] The conversion of NMN to NADH was monitored by measuring fluorescence intensity of NADH at an excitation of 340 nm and an emission of 445 nm (Y axis) as a function of time (X axis). Fluorescence at ex340 nm/em445 nm (F340/445) was measured continuously for 30 minutes at room temperature to establish the reaction velocity. The reaction rate of NMNAT2 enzyme was expressed as the concentration of NADH (equivalent to NAD) formed per minute. […]

NMNAT2, sequence (Q9BZQ4 whole entry, species assumed): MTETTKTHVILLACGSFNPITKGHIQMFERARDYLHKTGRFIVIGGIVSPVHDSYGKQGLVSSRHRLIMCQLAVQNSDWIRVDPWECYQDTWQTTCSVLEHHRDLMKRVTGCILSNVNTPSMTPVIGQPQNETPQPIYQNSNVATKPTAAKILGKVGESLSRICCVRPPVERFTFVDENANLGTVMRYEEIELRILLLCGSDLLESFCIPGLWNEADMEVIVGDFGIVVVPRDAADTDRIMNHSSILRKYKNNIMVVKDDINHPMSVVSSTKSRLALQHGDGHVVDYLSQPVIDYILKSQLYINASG
NMNAT1, sequence (Q9HAN9 whole entry, species assumed, canonical isoform): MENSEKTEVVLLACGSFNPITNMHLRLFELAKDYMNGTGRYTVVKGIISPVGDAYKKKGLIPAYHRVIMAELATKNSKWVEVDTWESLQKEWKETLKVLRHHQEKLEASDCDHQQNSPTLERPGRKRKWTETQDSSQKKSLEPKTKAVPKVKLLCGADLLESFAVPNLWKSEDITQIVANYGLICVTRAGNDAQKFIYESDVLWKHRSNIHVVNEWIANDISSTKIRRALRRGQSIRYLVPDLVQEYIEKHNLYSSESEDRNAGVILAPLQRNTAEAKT
NMNAT3, sequence (Q96T66 whole entry, species assumed, canonical isoform): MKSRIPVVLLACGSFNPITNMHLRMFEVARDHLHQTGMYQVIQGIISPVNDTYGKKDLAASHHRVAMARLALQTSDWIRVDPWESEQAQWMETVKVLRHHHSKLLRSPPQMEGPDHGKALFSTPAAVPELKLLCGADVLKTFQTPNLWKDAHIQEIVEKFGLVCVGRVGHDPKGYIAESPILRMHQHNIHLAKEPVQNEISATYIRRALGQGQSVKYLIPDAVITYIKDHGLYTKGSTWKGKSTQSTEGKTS

Row | SMILES | mice paw pressure threshold (Von Frey test) ([1]; 6 mg/kg/day i.p., D-7 to D8, paclitaxel 2 mg/kg on days 0, 2, 4, 6, FIG. 5) | NMNAT2 activation (reaction rate compared to DMSO-treated control) ([2]; 3 μM compound, FIG. 3, NMNAT isoform comparison) | level of activation in the doubly coupled NMNAT2 assay ([2]; high-throughput screen hits, FIG. 2 with compound at 3 μM) | NMNAT1 activation (reaction rate compared to DMSO-treated control) [3] | NMNAT3 activation (reaction rate compared to DMSO-treated control) [4] | activity in the ADH assay (relative ADH enzyme reaction rate) [5] | protection of cultured cells against SARM1-mediated toxicity (cell viability, ATP levels) [6] | mice paw pressure threshold (Von Frey test) ([1]; 3 mg/kg/day i.p., D-7 to D8, paclitaxel 2 mg/kg on days 0, 2, 4, 6, FIG. 6) | mice paw pressure threshold (Von Frey test) ([1]; 10 mg/kg/day i.p., D-7 to D8, paclitaxel 2 mg/kg on days 0, 2, 4, 6, FIG. 6) | mice paw pressure threshold (Von Frey test) ([1]; FIG. 6 legend, dose not stated there)
1 | C/C(=N\NC(=S)NN)c1ccccn1 [Compound 20, (E)-N′-(1-(pyridin-2-yl)ethylidene)hydrazinecarbothiohydrazide] | significantly increased the mice paw pressure threshold |  |  |  |  |  |  |  |  | 
2 | C/C(=N\NC(=S)N1CCC1)c1ccccn1 [Compound NSC, (E)-N′-(1-(pyridin-2-yl)ethylidene)azetidine-1-carbothiohydrazide] |  | activated NMNAT2 strongly; also recorded: activates NMNAT2 | most robust level of activation; also recorded: NMNAT2 activation | NMNAT1 weakly; also recorded: activates NMNAT2 and NMNAT1 | not NMNAT3 | inactive in the ADH assay | protects cultured cells against SARM1-mediated toxicity | significantly increased the mice paw pressure threshold | significantly increased the mice paw pressure threshold | significantly increased the mice paw pressure threshold
